Assay results: ChEMBL document CHEMBL1139761, “Synthesis and optimization of novel and selective muscarinic M(3) receptor antagonists” (Bioorg Med Chem Lett, 2007)

Assays:
[1] = biological target: Muscarinic acetylcholine receptor M3 (Rattus norvegicus, UniProt P08483); assay: Displacement of [3H]N-methylscopolamine from muscarinic M3 receptor in rat submandibular gland; type: tissue-based
[2] = biological target: T1, Muscarinic acetylcholine receptor M2 (Rattus norvegicus, UniProt P10980); assay: Displacement of [3H]N-methylscopolamine from muscarinic M2 receptor in rat heart
T1 sequence (P10980 whole entry): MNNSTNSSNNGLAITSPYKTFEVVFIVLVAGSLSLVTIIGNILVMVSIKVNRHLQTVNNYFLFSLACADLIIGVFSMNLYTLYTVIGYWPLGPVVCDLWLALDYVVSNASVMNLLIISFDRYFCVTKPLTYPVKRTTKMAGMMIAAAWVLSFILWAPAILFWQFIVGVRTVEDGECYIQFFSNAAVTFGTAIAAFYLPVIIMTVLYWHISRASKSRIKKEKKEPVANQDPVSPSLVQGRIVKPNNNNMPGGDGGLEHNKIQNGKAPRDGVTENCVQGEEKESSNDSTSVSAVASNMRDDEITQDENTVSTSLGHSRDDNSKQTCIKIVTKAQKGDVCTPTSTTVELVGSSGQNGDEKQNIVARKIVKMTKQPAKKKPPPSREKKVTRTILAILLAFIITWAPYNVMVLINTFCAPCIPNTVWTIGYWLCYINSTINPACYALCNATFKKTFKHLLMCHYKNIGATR

Chain of Muscarinic acetylcholine receptor M3 (P08483 whole entry): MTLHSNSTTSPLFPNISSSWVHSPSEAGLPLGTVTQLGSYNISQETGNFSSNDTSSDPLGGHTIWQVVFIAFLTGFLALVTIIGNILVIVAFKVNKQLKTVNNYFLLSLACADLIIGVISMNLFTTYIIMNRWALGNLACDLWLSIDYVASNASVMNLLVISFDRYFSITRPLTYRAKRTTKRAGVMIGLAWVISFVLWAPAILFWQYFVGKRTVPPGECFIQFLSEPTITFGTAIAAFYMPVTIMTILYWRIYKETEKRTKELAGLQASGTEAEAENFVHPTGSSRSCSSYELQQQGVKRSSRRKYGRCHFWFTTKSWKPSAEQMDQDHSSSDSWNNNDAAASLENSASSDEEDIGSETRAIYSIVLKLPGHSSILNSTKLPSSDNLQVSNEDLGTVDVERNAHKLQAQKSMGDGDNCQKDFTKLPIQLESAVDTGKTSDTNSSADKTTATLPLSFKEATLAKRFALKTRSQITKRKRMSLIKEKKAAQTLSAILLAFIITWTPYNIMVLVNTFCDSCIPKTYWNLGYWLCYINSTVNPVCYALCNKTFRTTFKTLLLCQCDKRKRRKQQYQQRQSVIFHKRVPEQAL

Structure (SMILES) | Ki [1] | Ki [2]
O=C(N[C@H]1[C@@H]2CN(CCCc3ccccc3)C[C@@H]21)C(O)(c1ccccc1)C1CCCC1 (some centres undefined) | 776 nM | 2630 nM
O=C(N[C@H]1[C@@H]2CN(Cc3ccc4ccccc4c3)C[C@@H]21)C(O)(c1ccccc1)C1CCCC1 (some centres undefined) | 42 nM | 778 nM
O=C(N[C@H]1[C@@H]2CN(CCc3ccccc3)C[C@@H]21)C(O)(c1ccccc1)C1CCCC1 (some centres undefined) | 9.3 nM | 335 nM
CC(c1ccccc1)N1C[C@@H]2[C@H](C1)[C@H]2NC(=O)C(O)(c1ccccc1)C1CCCC1 (some centres undefined) | 25.1 nM | 630 nM
O=C(N[C@H]1[C@@H]2CN(CCc3ccc4c(c3)OCO4)C[C@@H]21)[C@](O)(c1ccccc1)C1CCCC1 | 12.3 nM | 646 nM
Cc1ccc(C(C)N2C[C@@H]3[C@H](C2)[C@H]3NC(=O)C(O)(c2ccccc2)C2CCCC2)cc1 (some centres undefined) | 58.9 nM | 1230 nM
COC(=O)c1ccc(CCN2C[C@@H]3[C@H](C2)[C@H]3NC(=O)C(O)(c2ccccc2)C2CCCC2)cc1 (some centres undefined) | 43.6 nM | 537 nM
NC(=O)C(c1ccccc1)(c1ccccc1)[C@@H]1CCN(CCc2ccc3c(c2)CCO3)C1 [DARIFENACIN] |  | 63 nM
CC(c1ccccc1)N1C[C@@H]2[C@H](C1)[C@H]2NC(=O)C(O)(c1ccccc1)C1CCCCC1 (some centres undefined) | 5.9 nM | 154 nM
CC(C)=CCCN1C[C@@H]2[C@H](C1)[C@H]2NC(=O)[C@@](O)(c1ccccc1)C1CCCC1 | 71 nM | 1140 nM
CC(C)=CCCN1C[C@@H]2[C@H](C1)[C@H]2NC(=O)C(O)(c1ccccc1)C1CCCC1 (some centres undefined) | 33 nM | 1370 nM
O=C(N[C@H]1[C@@H]2CN(CCc3ccc(Cl)cc3)C[C@@H]21)C(O)(c1ccccc1)C1CCCC1 (some centres undefined) | 31.3 nM | 298 nM
O=C(N[C@H]1[C@@H]2CN(Cc3ccccc3)C[C@@H]21)C(O)(c1ccccc1)C1CCCCC1 (some centres undefined) | 31.7 nM | 943 nM
O=C(N[C@H]1[C@@H]2CN(Cc3ccccc3)C[C@@H]21)C(O)(c1ccccc1)C1CCCCCC1 (some centres undefined) | 6.8 nM | 349 nM
O=C(N[C@H]1[C@@H]2CN(Cc3ccccc3)C[C@@H]21)C(O)(c1ccccc1)C1CCCC1 (some centres undefined) | 96 nM | 1420 nM
O=C(N[C@H]1[C@@H]2CN(Cc3cccs3)C[C@@H]21)C(O)(c1ccccc1)C1CCCC1 (some centres undefined) | 524 nM | 3980 nM
Cc1ccc(CCN2C[C@@H]3[C@H](C2)[C@H]3NC(=O)C(O)(c2ccccc2)C2CCCC2)cc1C (some centres undefined) | 43.6 nM | 812 nM
CC(c1ccccc1)N1C[C@@H]2[C@H](C1)[C@H]2NC(=O)C(O)(c1ccccc1)C1CCCCCC1 (some centres undefined) | 1.8 nM | 39 nM
O=C(N[C@H]1[C@@H]2CN(Cc3ccccc3)C[C@@H]21)C(O)c1ccccc1 (some centres undefined) | > 1000 nM | > 1000 nM
O=C(N[C@H]1[C@@H]2CN(CCc3ccc4c(c3)OCO4)C[C@@H]21)C(O)(c1ccccc1)C1CCCC1 (some centres undefined) | 20 nM | 277 nM
